Article PMC8775250, “Cryo-EM Structure of the Rhodobacter sphaeroides Light-Harvesting 2 Complex at 2.1 Å” (Biochemistry, 2021)

Molecular target: T1, Rba. sphaeroides LH2 complex (light-harvesting 2 antenna, LH2 αβ) (Cereibacter sphaeroides, UniProt Q3J144+Q3J145)
T1 construct: gene pucA; native untagged complex purified from Rba. sphaeroides B7 membranes in LDAO; nonamer of αβ heterodimers; alpha N-terminal carboxymethionine; beta C-terminus Gly51
Test: cryo-EM structure ([…] Å)
Format: binding
Details: one carotenoid per αβ heterodimer (9 per nonamer); native bound pigment; pH 7.8, LDAO

T1 sequence (Q3J145 whole entry): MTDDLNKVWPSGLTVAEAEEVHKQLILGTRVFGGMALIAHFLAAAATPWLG
T1 sequence (Q3J144 1-50): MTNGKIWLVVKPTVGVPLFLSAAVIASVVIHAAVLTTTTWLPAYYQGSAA

COC(C)(C)C/C=C/C(C)=C/C=C/C(C)=C/C=C/C(C)=C/C=C/C=C(C)/C=C/C=C(\C)CC/C=C(\C)CCC=C(C)C [spheroidene]
cryo-EM structure (2.1 Å): the carotenoid spheroidene adopts an all-trans conformation as it winds through the LH2 complex
